Measurements: US8215314B2, “Photochemical tissue bonding” (The General Hospital Corporation, priority 2000, dated 2012)

Tests used:
[1] = system: partial thickness skin grafts; test: Skin graft adherence after PTB, ex vivo (tensiometer); set-up: species or system mini pigs; details: RB concentration 0.1% (w/v) among 0, 0.01, 0.1, 1%
From the text: To test the ability of PTB to quickly and effectively bond skin grafts to a wound site, an ex vivo model utilizing mini pigs was developed. The use of porcine models in wound healing is well known by those skilled in the art. The similarities between porcine wound healing and that of humans enable one to extrapolate the therapeutic results obtained in a porcine model system to a therapeutic result in humans.
Partial thickness skin grafts of approximately 0.020 inch (corresponding to the thick partial-thickness grafts used in clinical situation) were harvested from mini pigs (2 to 7 months old, weight 15 to 43 kgs) after euthanasia. The grafts were temporarily stored by wrapping the graft around gauze, which was soaked in phosphate buffered saline (PBS). […]
The grafts were irradiated using a continuous-wave (CW) argon-ion laser (Innova 100; Coherent, Palo Alto, Calif.) at 514.5 nm. […] The irradiance of laser applied was 0.56 and 1.68 W/cm^2 while the dose-dependent response of the laser fluence from 126 to 504 J/cm^2 was determined. […]
Following the irradiation, the adherence of the skin grafts was tested utilizing a tensiometer (Chartillon) coupled to a force transducer (DFA2, Ametek). The applied force versus the displacement of the force plate was acquired through the transducer and recorded by computer software (Labview 4.0, National Instrument). […]

[2] = system: collagen gel implant on rat latissimus dorsi muscle flap; test: Adherence of collagen-based esophagus implant to host muscle flap after PTB, ex vivo; details: for adherence of collagen implant on muscle flap: 0.1% RB, 514 nm
Method: An ex vivo experimental system was developed to investigate the effect of PTB on the bonding of an engineered, collagen-based, esophagus implant to host muscle flap tissue without the need for silicon tubing.
FIG. 14 provides an overview of the experimental methods. Esophageal keratinocytes were seeded on uncontracted collagen gel (ICN Biomedicals) for about one week until confluence was reached. A 1×1 cm piece of seeded collagen gel was removed (implant) from the culture dish and a suture loop was laced through at its edge. An equivalently-sized section of rat latissimus dorsi muscle flap was secured onto a flat plastic surface with sutures. Rose bengal (RB) at 0.1% (w/v), a photosensitizer having an absorption maximum and absorption coefficient of 550 nm and 33,000 dm^3/mo/cm at 514 nm, respectively, was applied to the collagen side of the implant and the surface of the muscle flap and incubated for about two minutes. The esophagus implant and the muscle flap were approximated with the dye-treated surfaces facing each other by gently pressing over the esophagus implants without damaging the keratinocyte layer. Excess dye was removed by aspiration and blotting. […]
Following irradiation, the adherence of the collagen-based esophageal implant to the host muscle flap was tested for the 50 J/cm^2 sample, 100 J/cm^2 sample, and the three controls, using a tensiometer (Chartillon) coupled to a force transducer (DFA2, Ametek). The adherence (N/cm^2; N=force applied, cm^2=area of collagen implant) of the collagen implant on the muscle flap was determined from the force-deflection curve, generated by plotting the amount of peeling force applied to the collagen implant to the force plate displacement level of the force transducer. It was observe that the mean adherence measurements determined for the negative, RB, and laser controls were 0.05, 0.06, and 0.07 N/cm^2, respectively (FIG. 15). In contrast, the adherence measurements determined for the 50 and 100 J/cm^2 composite samples were 0.15 and 0.13 N/cm^2, respectively (FIG. 15).

[3] = system: rabbit (New Zealand White) corneas; test: In vivo PTB of 3.5-mm corneal incisions, incisional bursting pressure; details: 1.5 mM RB
Method: PTB was performed in vivo in New Zealand rabbits to repair two types of corneal wounds.
In group I 3.5-mm incisions were performed in 20 rabbit (New Zealand White) corneas. Dose and laser irradiance were varied in subgroups of five or more eyes for each condition and appropriate control eyes. Photoactivation was performed with a 514 nm Argon Laser. Wound leak and incisional bursting pressure of the treated and untreated rabbit eyes was determined in vivo, with the animals under anesthetic.
Group I wounds were healed using, e.g., 191 J/cm2, applying 1.5 mM RB. The immediate in vivo bursting pressure was 495±10 mm Hg for PTB treated eyes. Under the same conditions the values of the busting pressure in the control eye varied from 15 to 60 mm Hg. One day after surgery, the bursting pressure was the same for PTB treated eyes and control eyes (approximately 450±125 mmHg). At 14 days, the bursting pressure exceeded 500 mm Hg in both PTB-treated and control eyes.

SMILES: O=C([O-])c1c(Cl)c(Cl)c(Cl)c(Cl)c1-c1c2cc(I)c(=O)c(I)c-2oc2c(I)c([O-])c(I)cc12.[Na+].[Na+] [Rose Bengal]
- skin graft adherence levels [1]: optimal increase
- adherence of collagen implant on muscle flap ([2]; 0.25 W/cm^2, 50 J/cm^2): 0.15 N/cm^2
- adherence of collagen implant on muscle flap ([2]; 0.25 W/cm^2, 100 J/cm^2): 0.13 N/cm^2
- mean adherence of collagen implant on muscle flap ([2]; RB control: 0.1% RB treated, nonirradiated): 0.06 N/cm^2
- immediate in vivo bursting pressure ([3]; 191 J/cm2, 514 nm, 3.5-mm incision): 495±10 mm Hg
- bursting pressure at 14 days ([3]; 191 J/cm2, also in control eyes): exceeded 500 mm Hg
- bursting pressure one day after surgery ([3]; 191 J/cm2, same as control eyes): approximately 450±125 mmHg
